From patent publication US20220402935A1, “HETEROCYCLIC COMPOUND” (FIMECS, INC., priority 2019, published 2022) come the findings set out here.

For test [1], the target named is T1, IRAK-M (Homo sapiens, UniProt Q9Y616).
T1 sequence (Q9Y616 1-596): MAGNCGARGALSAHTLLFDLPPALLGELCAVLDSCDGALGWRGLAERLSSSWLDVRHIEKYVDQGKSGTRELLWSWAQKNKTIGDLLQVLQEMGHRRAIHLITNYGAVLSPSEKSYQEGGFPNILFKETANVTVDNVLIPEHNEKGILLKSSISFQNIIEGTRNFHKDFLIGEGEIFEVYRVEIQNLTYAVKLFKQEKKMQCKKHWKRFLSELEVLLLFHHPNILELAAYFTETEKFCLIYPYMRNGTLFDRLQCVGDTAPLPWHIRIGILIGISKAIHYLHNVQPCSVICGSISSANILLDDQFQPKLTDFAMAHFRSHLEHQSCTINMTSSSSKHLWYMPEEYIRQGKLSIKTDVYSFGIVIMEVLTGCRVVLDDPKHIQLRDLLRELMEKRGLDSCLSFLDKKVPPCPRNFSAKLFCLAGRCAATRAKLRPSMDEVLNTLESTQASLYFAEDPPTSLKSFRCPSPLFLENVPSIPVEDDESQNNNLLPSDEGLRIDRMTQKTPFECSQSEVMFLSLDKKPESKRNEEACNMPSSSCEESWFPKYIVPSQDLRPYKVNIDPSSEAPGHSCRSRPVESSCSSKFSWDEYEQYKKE
Kind of test: IRAK-M binding inhibitory activity (KINOMEscan active site-dependent competitive assay). Details: purchased Eurofins Discover X. The settings on record: for remaining binding at 1 µM: concentration of the test compound 1 μM, first symbol of cell, read-out: IRAK-M binding inhibition activity % Ctrl. The gist of the method: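 Readout given as % Ctrl, with DMSO as 100% and a control compound as 0%, scaling the test compound signal between them. Binding to human IRAK-M was assessed by KINOMEscan competition at the kinase active site.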

Test [2] concerns the target T2, human XIAP_BIR3 domain purified protein (Homo sapiens, UniProt P98170).
T2 construct: purchased R & D
Kind of test: XIAP binding inhibitory activity (HTRF, b-Smac ligand). The settings on record: second symbol of cell; read-out: XIAP binding inhibition IC50 value. The essentials: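 HTRF competition between compound and C-terminally biotinylated Smac peptide AVPIAQK for His-tagged XIAP BIR3, both diluted to 90 nM before addition, in pH 7.5 HEPES/NaCl/BSA/Triton buffer. Eu-cryptate anti-His and streptavidin-XL665 added, ≥4 h at room temperature in the dark; inhibition % from 665/615 nm ratio versus no-compound wells.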

The target of test [3] is T1, IRAK-M. Kind of test: In vitro degradation activity of target protein (IRAK-M ELISA in THP1 cells). Format: cell-based. Set-up: host or cells: THP1 cells. The settings on record: 24 hours, second symbol of cell, read-out: IRAK-M 50% degradation concentration (DC50 value). Here is the method:
In vitro degradation activities of target protein of the example compounds were evaluated using Enzyme-linked immuno-sorbent assay (ELISA) by the following assay steps. THP1 cells (ATCC, TIB-202) were cultured in RPMI-1640 supplemented with 10% FBS, lx sodium pyruvate, lx HEPES, D-(+)-glucose and 1% penicillin/streptomycin. THP1 cells were seeded at a density of 1×10^6 cells/well in 24-well plate and treated with DMSO control or test compound, and then incubated for 24 hours. The cells were collected and lysed on ice for 30 minutes in lysis buffer (PBS containing 0.1% Triton X-100) containing a protease inhibitor cocktail (Roche, Cat #11836170001). The lysates were sonicated for 30 sec ON/30 sec OFF for ten cycles and centrifuged for 10 minutes at 13k rpm at 4° C. Protein concentrations were determined by the BCA assay (Sigma, Cat #QPBCA-1KT). The ELISA assay was performed using the Human IRAK3/IRAKM/IRAK-M ELISA Kit (LifeSpan BioSciences, Cat #LS-F35271), and the protein levels of IRAK-M were evaluated according to the kit protocol. As to the IRAK-M degradation rate of test compounds, protein degradation rate (%) when the concentration of the test compound is […] described as A≥75%, 50%≤B<75%, 25%≤C<50%, D<25%, or 50% degradation concentration (DC50 value) described as A<0.03 μM, 0.03 μM≤B<0.1 μM, 0.1 μM≤C<0.3 μM, 0.3 μM≤D<1 μM, is shown in the table below.

Counter-ions that a name gives are not always drawn.

T2 sequence (P98170 252-356 limits assumed): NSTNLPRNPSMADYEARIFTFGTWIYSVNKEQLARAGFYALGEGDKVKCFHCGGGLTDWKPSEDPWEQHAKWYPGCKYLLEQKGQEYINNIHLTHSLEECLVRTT

For the compound `CN[C@@H](C)C(=O)N[C@H](C(=O)N1CCN(C(=O)c2c(Cl)c3ccccc3n2CC(=O)N(C)CCOCCOCCOCCOc2cc(CN3CCC(Oc4ccnc5ccsc45)CC3)on2)CC1)C1CCCCC1` [Example 32, (S)-N-((S)-2-(4-(3-chloro-1-(3-methyl-2-oxo-14-((5-((4-(thieno[3,2-b]pyridin-7-yloxy)piperidin-1-yl)methyl)isoxazol-3-yl)oxy)-6,9,12-trioxa-3-azatetradecyl)-1H-indole-2-carbonyl)piperazin-1-yl)-1-cyclohexyl-2-oxoethyl)-2-(methylamino)propanamide], on IRAK-M [1], the remaining binding at 1 µM is under 25%. Further, the IC50 in test [2] was in the range of 3000 to 30000 nM. Also, the DC50 on IRAK-M [3] is 300 to 1000 nM.

Consider `CN[C@@H](C)C(=O)N[C@H](C(=O)N1CCN(C(=O)c2c(Cl)c3cc(F)ccc3n2CC(=O)N(C)CCOCCOCCOCCOc2cc(CN3CCC(Oc4ccnc5ccsc45)CC3)on2)CC1)C1CCCCC1` [Example 34, (S)-N-((S)-2-(4-(3-chloro-5-fluoro-1-(3-methyl-2-oxo-14-((5-((4-(thieno[3,2-b]pyridin-7-yloxy)piperidin-1-yl)methyl)isoxazol-3-yl)oxy)-6,9,12-trioxa-3-azatetradecyl)-1H-indole-2-carbonyl)piperazin-1-yl)-1-cyclohexyl-2-oxoethyl)-2-(methylamino)propanamide], for which the remaining binding at 1 µM at IRAK-M [1] was in the range of 25 to 50%. For the same compound, the IC50 in test [2] lay within 3000 to 30000 nM. The DC50 on IRAK-M [3] fell in the range of 300 to 1000 nM.

As for `CN[C@@H](C)C(=O)N[C@H](C(=O)N1CCN(C(=O)c2cc3cc(F)ccc3n2CC(=O)N2CCC[C@H]2COc2cc(CN3CCC(Oc4ccnc5ccsc45)CC3)on2)CC1)C1CCCCC1` [Example 26, (S)-N-((S)-1-Cyclohexyl-2-(4-(5-fluoro-1-(2-oxo-2-((S)-2-(((5-((4-(thieno[3,2-b]pyridin-7-yloxy)piperidin-1-yl)methyl)isoxazol-3-yl)oxy)methyl)pyrrolidin-1-yl)ethyl)-1H-indole-2-carbonyl)piperazin-1-yl)-2-oxoethyl)-2-(methylamino)propanamide], the IC50 on IRAK-M [1] (second symbol of cell, read-out: IRAK-M binding inhibition IC50 value) was 300 to 1000 nM; in test [2], 3000 to 30000 nM. The DC50 at IRAK-M [3] was under 30 nM.

On to `CN[C@@H](C)C(=O)N[C@H](C(=O)N1CCN(C(=O)c2cc3cc(F)c(F)cc3n2CC(=O)N(C)CCOCCOCCOCCOc2cc(CN3CCC(Oc4ccnc5ccsc45)CC3)on2)CC1)C1CCCCC1` [Example 24, (S)-N-((S)-1-Cyclohexyl-2-(4-(5,6-difluoro-1-(3-methyl-2-oxo-14-((5-((4-(thieno[3,2-b]pyridin-7-yloxy)piperidin-1-yl)methyl)isoxazol-3-yl)oxy)-6,9,12-trioxa-3-azatetradecyl)-1H-indole-2-carbonyl)piperazin-1-yl)-2-oxoethyl)-2-(methylamino)propanamide hydrochloride], for which, at IRAK-M [1], the remaining binding at 1 µM is under 25%. In test [2], the IC50 lay within 3000 to 30000 nM. In addition, the DC50 at IRAK-M [3] was 300 to 1000 nM.

For `CN[C@@H](C)C(=O)N[C@H](C(=O)N1CCN(C(=O)c2c(C(=O)NCCOCCOCCOc3cc(CN4CCC(Oc5ccnc6ccsc56)CC4)on3)c3cc(F)c(F)cc3n2C)[C@@H](C)C1)C1CCCCC1` [Example 12, 2-((S)-4-((S)-2-cyclohexyl-2-((S)-2-(methylamino)propanamido)acetyl)-2-methylpiperazine-1-carbonyl)-5,6-difluoro-1-methyl-N-(2-(2-(2-((5-((4-(thieno[3,2-b]pyridin-7-yloxy)piperidin-1-yl)methyl)isoxazol-3-yl)oxy)ethoxy)ethoxy)ethyl)-1H-indole-3-carboxamide], at IRAK-M [1], the remaining binding at 1 µM is under 25%. In test [2], the IC50 lay in the range of 300 to 3000 nM. Also, the DC50 on IRAK-M [3] fell in the range of 100 to 300 nM.

As for `CN[C@@H](C)C(=O)N[C@H](C(=O)N1CCN(C(=O)c2c(Cl)c3cc(F)ccc3n2CC(=O)N2CCC[C@H]2COc2cc(CN3CCC(Oc4ccnc5ccsc45)CC3)on2)CC1)C1CCCCC1` [Example 40, (S)-N-((S)-2-(4-(3-chloro-5-fluoro-1-(2-oxo-2-((S)-2-(((5-((4-(thieno[3,2-b]pyridin-7-yloxy)piperidin-1-yl)methyl)isoxazol-3-yl)oxy)methyl)pyrrolidin-1-yl)ethyl)-1H-indole-2-carbonyl)piperazin-1-yl)-1-cyclohexyl-2-oxoethyl)-2-(methylamino)propanamide], the remaining binding at 1 µM at IRAK-M [1] is 25 to 50%. Also, the IC50 in test [2] was in the range of 3000 to 30000 nM. Moreover, the DC50 on IRAK-M [3] was in the range of 300 to 1000 nM.

Take `CN[C@@H](C)C(=O)N[C@H](C(=O)N1CCN(C(=O)c2cc3cc(F)c(F)cc3n2CCOCCOCCOCCOc2cc(CN3CCC(Oc4ccnc5ccsc45)CC3)on2)CC1)C1CCCCC1` [Example 29, (S)-N-((S)-1-cyclohexyl-2-(4-(5,6-difluoro-1-(2-(2-(2-(2-((5-((4-(thieno[3,2-b]pyridin-7-yloxy)piperidin-1-yl)methyl)isoxazol-3-yl)oxy)ethoxy)ethoxy)ethoxy)ethyl)-1H-indole-2-carbonyl)piperazin-1-yl)-2-oxoethyl)-2-(methylamino)propanamide]: on IRAK-M [1], the remaining binding at 1 µM is under 25%. The IC50 in test [2] fell in the range of 3000 to 30000 nM. In addition, the DC50 at IRAK-M [3] was 300 to 1000 nM.

Take `CN[C@@H](C)C(=O)N[C@H](C(=O)N1CCN(C(=O)c2c(C)c3cc(F)ccc3n2CC(=O)N(C)CCOCCOCCOCCOc2cc(CN3CCC(Oc4ccnc5ccsc45)CC3)on2)CC1)C1CCCCC1` [Example 33, (S)-N-((S)-1-cyclohexyl-2-(4-(5-fluoro-3-methyl-1-(3-methyl-2-oxo-14-((5-((4-(thieno[3,2-b]pyridin-7-yloxy)piperidin-1-yl)methyl)isoxazol-3-yl)oxy)-6,9,12-trioxa-3-azatetradecyl)-1H-indole-2-carbonyl)piperazin-1-yl)-2-oxoethyl)-2-(methylamino)propanamide]: the remaining binding at 1 µM at IRAK-M [1] is under 25%. In addition, in test [2], the IC50 lay in the range of 3000 to 30000 nM. Also, on IRAK-M [3], the DC50 was in the range of 300 to 1000 nM.

For the compound `CN[C@@H](C)C(=O)N[C@H](C(=O)N1CCN(C(=O)c2c(Cl)c3ccccc3n2CC(=O)N2CCC[C@H]2COc2cc(CN3CCC(Oc4ccnc5ccsc45)CC3)on2)CC1)C1CCCCC1` [Example 38, (S)-N-((S)-2-(4-(3-chloro-1-(2-oxo-2-((S)-2-(((5-((4-(thieno[3,2-b]pyridin-7-yloxy)piperidin-1-yl)methyl)isoxazol-3-yl)oxy)methyl)pyrrolidin-1-yl)ethyl)-1H-indole-2-carbonyl)piperazin-1-yl)-1-cyclohexyl-2-oxoethyl)-2-(methylamino)propanamide], the remaining binding at 1 µM on IRAK-M [1] was in the range of 25 to 50%. Further, the IC50 in test [2] was 3000 to 30000 nM. The DC50 at IRAK-M [3] is 300 to 1000 nM.

Consider `CN[C@@H](C)C(=O)N[C@H](C(=O)N1CCN(C(=O)c2c(F)c3ccccc3n2CC(=O)N(C)CCOCCOCCOCCOc2cc(CN3CCC(Oc4ccnc5ccsc45)CC3)on2)CC1)C1CCCCC1` [Example 37, (S)-N-((S)-1-cyclohexyl-2-(4-(3-fluoro-1-(3-methyl-2-oxo-14-((5-((4-(thieno[3,2-b]pyridin-7-yloxy)piperidin-1-yl)methyl)isoxazol-3-yl)oxy)-6,9,12-trioxa-3-azatetradecyl)-1H-indole-2-carbonyl)piperazin-1-yl)-2-oxoethyl)-2-(methylamino)propanamide], for which the remaining binding at 1 µM on IRAK-M [1] was at least 75%. Besides, the IC50 in test [2] was 3000 to 30000 nM. The DC50 on IRAK-M [3] fell in the range of 300 to 1000 nM.
